Source: EP0739882B1, “Novel aconitine compounds and analgesic/anti-inflammatory agent containing the same” (SANWA SHOYAKU KABUSHIKI KAISHA, priority 1991, dated 1993)

What was measured:
[1] = Property and solubility (qualitative solubility in solvents); format: physicochemical; details: for Solubility: solvents in which insoluble: hexane and water
[2] = system: Male mice of the Std:ddY Strain; assay: Analgesic activity by the acetic acid-induced writhing method; format: in vivo; details: Mus musculus; test compound s.c. 30 minutes before 0.7 % acetic acid i.p.; writhing counted for 10 minutes; Litchfield-Wilcoxon; 95 % confidence limits in brackets
Description: Experiment example 1 (Analgesic action)
Measurement of analgesic activity by the acetic acid-induced writhing method.
Male mice of the Std:ddY Strain (20 - 25g) were used. All mice were maintained at room temperature of 24 - 25 °C on a 12 hours light and dark cycle and were given food and water ad libitum. Test compound was used in 3 % suspension in gum arabic, 0.7 % acetic acid in 0.9 % physiological saline solution was injected i.p. (10ml / kg) at 30 minutes after test compound was administered s.c. After 10 minutes, the number of writhing movements was counted for a period of 10 minutes. 3 % gum arabic solution in 0.9 % physiological saline solution was used as a negative control. The ED50 values were calculated in accordance with the Litchfield-Wilcoxon's method based on judging to be positive in case of half and under the writhing number of negative control group.

[3] = Acute toxicity (LD50, s.c.); design: species or system mice; details: mouse, in vivo, sc, mortality during 72 hours, Litchfield-Wilcoxon, read-out: LD50 value, mg/kg (95 % confidence limits)
Description: Experiment example 3 (Acute toxicity)
Male mice of the Std:ddY Strain (20 - 25g) were used. The LD50 values were calculated using the method of Litchfield-Wilcoxon from the mortality during 72 hours after test compound was administered s.c. The results are shown in Table 3.

Molecule	Solubility: solvents in which soluble [1]	Solubility: solvents in which insoluble [1]	ED50 [2]	LD50 at 72 h [3]
3,13-dideoxy-14-O-m-chlorobenzoylaconine	Soluble in ether, chloroform, benzene, ethanol, methanol, ethylacetate, pyridine and dimethyl sulfoxide	Insoluble in hexane and water	–	–
CCN1CC2(COC)C(O)CC(OC)C34C5CC6(O)C(OC)C(O)C(O)(C5C6OC(=O)c5ccc(F)cc5)C(C(OC)C23)C14 (stereo not shown) [14-O-p-fluorobenzoylaconine]	Soluble in ether, chloroform, benzene, ethanol, methanol, acetone, ethylacetate, pyridine and dimethyl sulfoxide	Insoluble in hexane and water	8.26 mg/kg	> 30 mg/kg
CCN1CC2(COC)C(O)CC(OC)C34C5CC6(O)C(OC)C(=O)C(C5C6OC(=O)c5cccc(Cl)c5)C(C(OC)C23)C14 (stereo not drawn) [14-O-m-chlorobenzoyl-16-epi-pyroaconine]	Soluble in ether, chloroform, benzene, ethanol, methanol, ethylacetate, pyridine and dimethyl sulfoxide	Insoluble in hexane and water	11.9 mg/kg	> 20 mg/kg
CCN1CC2(COC)CCC(OC)C34C5CC6(O)C(OC)C(=O)C(C5C6OC(=O)c5cccc(Cl)c5)C(C(OC)C23)C14 (stereo not drawn) [3-deoxy-14-O-m-chlorobenzoyl-16-epi-pyroaconine]	Soluble in ether, chloroform, benzene, ethanol, methanol, ethylacetate, pyridine and dimethyl sulfoxide	Insoluble in hexane and water	10.1 mg/kg	> 20 mg/kg
3,8-dideoxy-14-O-m-chlorobenzoylaconine	Soluble in ether, chloroform, benzene, ethanol, methanol, ethylacetate, pyridine and dimethyl sulfoxide	Insoluble in hexane and water	–	–
CCN1CC2(COC)CCC(OC)C34C5CC6C(OC)C(O)C(C5C6OC(=O)c5cccc(Cl)c5)C(C(OC)C23)C14 (stereo not shown) [3,8,13-trideoxy-14-O-m-chlorobenzoylaconine]	Soluble in ether, chloroform, benzene, ethanol, methanol, ethylacetate, pyridine and dimethyl sulfoxide	Insoluble in hexane and water	–	–
CCN1CC2(COC)CCC(OC)C34C5CC6C(OC)C(=O)C(C5C6OC(=O)c5cccc(Cl)c5)C(C(OC)C23)C14 (stereo not drawn) [3,13-dideoxy-14-O-m-chlorobenzoyl-16-epi-pyroaconine]	Soluble in ether, chloroform, benzene, ethanol, methanol, ethylacetate, pyridine and dimethyl sulfoxide	Insoluble in hexane and water	11 mg/kg	> 20 mg/kg
CCN1CC2(COC)C(O)CC(OC)C34C5CC6(O)C(OC)C(O)C(O)(C5C6OC(=O)c5ccc(Br)cc5)C(C(OC)C23)C14 (stereo not shown) [14-O-p-bromobenzoylaconine]	Soluble in ether, chloroform, benzene, ethanol, methanol, acetone, ethylacetate, pyridine and dimethyl sulfoxide	Insoluble in hexane and water	6.42 mg/kg	> 30 mg/kg
3-deoxy-14-O-m-chlorobenzoylaconine	Soluble in ether, chloroform, benzene, ethanol, methanol, ethylacetate, pyridine and dimethyl sulfoxide	Insoluble in hexane and water	–	–
14-O-m-chlorobenzoylaconine	Soluble in ether, chloroform, benzene, ethanol, methanol, ethylacetate, pyridine and dimethyl sulfoxide	Insoluble in hexane and water	–	–
COCC12CN(C)C3C4C(OC)C1C3(C(OC)CC2O)C1CC2(O)C(OC)C(O)C4(O)C1C2OC(=O)c1ccc(Cl)cc1 (stereo not shown) [14-O-p-chlorobenzoylmesaconine]	Soluble in ether, chloroform, benzene, ethanol, methanol, acetone, ethylacetate, pyridine and dimethyl sulfoxide	Insoluble in hexane and water	5.85 mg/kg	> 30 mg/kg
